Assay results taken from ChEMBL document CHEMBL1201862, “PubChem BioAssay data set” (2004).
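Protocol summary: plate cells (96-well), add compound at 5 concentrations, incubate 48 h, interpolate endpoints linearly. GI50 marks 50% less growth.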 The source made the active and inactive calls. Cut-off read from the data, not from the text of the source: active = GI50 up to about 1.1 µM and inactive = higher.

How the values were obtained:
Assay in all cases: inhibition of tumour cell growth, NCI panel, 48 h
HCT-116 = test system: HCT-116
SK-MEL-5 = test system: SK-MEL-5
SK-MEL-2 = test system: SK-MEL-2
UACC-62 = test system: UACC-62
DLD-1 = test system: DLD-1
IGROV-1 = test system: IGROV-1
U-251 = test system: U-251
SW-620 = test system: SW-620
SNB-78 = test system: SNB-78
RXF 393 = test system: RXF 393
NCI-H522 = test system: NCI-H522
M19-MEL = test system: M19-MEL
NCI-H226 = test system: NCI-H226
KM-20L2 = test system: KM-20L2
786-0 = test system: 786-0
T47D = test system: T47D
MDA-MB-435 = test system: MDA-MB-435
PC-3 = test system: PC-3
MDA-N = test system: MDA-N
BT-549 = test system: BT-549

| SMILES | GI50 (HCT-116) | GI50 (SK-MEL-5) | GI50 (SK-MEL-2) | GI50 (UACC-62) | GI50 (DLD-1) | GI50 (IGROV-1) | GI50 (U-251) | GI50 (SW-620) | GI50 (SNB-78) | GI50 (RXF 393) | GI50 (NCI-H522) | GI50 (M19-MEL) | GI50 (NCI-H226) | GI50 (KM-20L2) | GI50 (786-0) | GI50 (T47D) | GI50 (MDA-MB-435) | GI50 (PC-3) | GI50 (MDA-N) | GI50 (BT-549) |
| --- | --- | --- | --- | --- | --- | --- | --- | --- | --- | --- | --- | --- | --- | --- | --- | --- | --- | --- | --- | --- |
| CC[C@]12C=CCN3CC[C@@]4(c5ccc(OC)cc5N(C)[C@H]4[C@@](O)(C(=O)OC)[C@@H]1OC(C)=O)[C@@H]32 | 172 µM (inactive) | 99.5 µM (inactive) | 182 µM (inactive) | 143 µM (inactive) | > 200 µM (inactive) | > 185 µM (inactive) | > 200 µM (inactive) | > 200 µM (inactive) | 195 µM (inactive) | 96.8 µM (inactive) | 97.9 µM (inactive) | 57.5 µM (inactive) | 132 µM (inactive) | > 101 µM (inactive) |  |  |  |  |  |  |
| CCNC(=O)C(C)C1CCC2(C)C=CC(=O)C(C)=C2C1O (configuration not stated) | > 100 µM (inactive) | > 100 µM (inactive) | > 100 µM (inactive) | > 100 µM (inactive) | > 100 µM (inactive) | 98.4 µM (inactive) | > 76.4 µM (inactive) | > 100 µM (inactive) | > 100 µM (inactive) | > 100 µM (inactive) | > 100 µM (inactive) | > 100 µM (inactive) | > 100 µM (inactive) | > 100 µM (inactive) |  |  |  |  |  |  |
| CC(=O)NC(CCCN(Cc1ccccc1)C(=O)N(C)N=O)C(=O)NCc1ccccc1 (configuration not stated) | > 100 µM (inactive) | > 100 µM (inactive) | > 100 µM (inactive) | > 100 µM (inactive) | > 100 µM (inactive) | > 100 µM (inactive) | > 100 µM (inactive) | > 100 µM (inactive) | > 100 µM (inactive) | > 100 µM (inactive) | 37.1 µM (inactive) | > 100 µM (inactive) | > 100 µM (inactive) | > 100 µM (inactive) | > 100 µM (inactive) |  |  |  |  |  |
| [N-]=[N+]=CC(=O)CCC(N)C(=O)O (configuration not stated) |  | 1.22 µM (inactive) | 53.7 µM (inactive) | 2.88 µM (inactive) | 1.02 µM (active) | 1.92 µM (inactive) | 1.55 µM (inactive) | 2.31 µM (inactive) | 4.25 µM (inactive) | 8.18 µM (inactive) | 3.01 µM (inactive) | 1.59 µM (inactive) | 39.6 µM (inactive) | 0.226 µM (active) | 2.14 µM (inactive) | 18.7 µM (inactive) | 1.75 µM (inactive) | 0.741 µM (active) | 1.32 µM (inactive) | 34.6 µM (inactive) |
| CC1=CC(O)C(O)C2(C)C1CC1OC(=O)C(O)C3C(C)C(O)C4(O)OCC13C42 (configuration not stated) | 99.5 µM (inactive) | 29.4 µM (inactive) | 59.2 µM (inactive) | 84.3 µM (inactive) | 135 µM (inactive) | 15.9 µM (inactive) | 62.8 µM (inactive) | 24.7 µM (inactive) | 39.4 µM (inactive) | 8.81 µM (inactive) | 50.5 µM (inactive) | 56 µM (inactive) | 41.3 µM (inactive) | 22.4 µM (inactive) |  |  |  |  |  |  |
| COc1ccc(C[C@H](N)C(=O)N2C[C@@H](CO)C[C@@H](n3cnc4c(N(C)C)ncnc43)C2)cc1 | > 100 µM (inactive) | > 100 µM (inactive) | > 100 µM (inactive) | > 100 µM (inactive) | > 100 µM (inactive) | > 100 µM (inactive) | > 100 µM (inactive) | > 100 µM (inactive) | > 100 µM (inactive) |  | > 100 µM (inactive) | > 100 µM (inactive) |  | > 100 µM (inactive) | > 100 µM (inactive) |  |  |  |  |  |
| COc1cc(C=O)cc(O)c1O | > 100 µM (inactive) |  |  | 27.4 µM (inactive) | > 100 µM (inactive) | > 100 µM (inactive) | > 100 µM (inactive) | > 100 µM (inactive) | > 100 µM (inactive) | > 10 µM (inactive) | 99.8 µM (inactive) | > 100 µM (inactive) | > 100 µM (inactive) | > 100 µM (inactive) | > 100 µM (inactive) |  |  |  |  |  |
| CC(C)[C@](O)(C(=O)OCC1CC[N+]2([O-])CC[C@@H](O)C12)[C@H](C)O (some centres not stated) | > 255 µM (inactive) | > 334 µM (inactive) | 62.2 µM (inactive) | > 375 µM (inactive) | > 375 µM (inactive) | > 375 µM (inactive) | > 375 µM (inactive) | > 375 µM (inactive) | > 375 µM (inactive) | > 375 µM (inactive) | > 375 µM (inactive) | > 375 µM (inactive) | > 375 µM (inactive) | > 375 µM (inactive) |  |  |  |  |  |  |
| COc1cccc2c1[C@H]1CO[C@H]3C4C[C@H](C(=O)O)C([C@@H](C2)N13)N4C (some centres not stated) | 2.53 µM (inactive) | 1.88 µM (inactive) | 1.08 µM (active) | 1.12 µM (inactive) | 2.84 µM (inactive) | 4.51 µM (inactive) | 1.41 µM (inactive) | 1.98 µM (inactive) | 3.72 µM (inactive) | 1.19 µM (inactive) | 0.294 µM (active) | 3.64 µM (inactive) | 1.29 µM (inactive) | 3.24 µM (inactive) | 1.3 µM (inactive) | 0.242 µM (active) | 0.0533 µM (active) |  | 0.17 µM (active) | 0.116 µM (active) |
| O=C1OC2CC=CC1C2 (configuration not stated) | > 100 µM (inactive) | > 100 µM (inactive) | > 100 µM (inactive) | > 100 µM (inactive) | > 100 µM (inactive) | > 100 µM (inactive) | > 100 µM (inactive) | > 100 µM (inactive) | > 100 µM (inactive) | > 100 µM (inactive) | > 100 µM (inactive) | > 100 µM (inactive) | > 100 µM (inactive) | > 100 µM (inactive) |  |  |  |  |  |  |
| C1CNCCNCCNCCN1 | 50.1 µM (inactive) | > 100 µM (inactive) | > 100 µM (inactive) | > 100 µM (inactive) | 41.3 µM (inactive) | > 100 µM (inactive) | 24 µM (inactive) | 52.2 µM (inactive) | > 100 µM (inactive) | > 100 µM (inactive) | > 100 µM (inactive) | > 100 µM (inactive) | > 100 µM (inactive) | 82.6 µM (inactive) | > 100 µM (inactive) |  |  |  |  |  |
| Nc1ncnc2c1nnn2C1OC(CO)C(O)C1O (configuration not stated) | 1.9 µM (inactive) | 4 µM (inactive) | 1.3 µM (inactive) | 5.7 µM (inactive) | 1.36 µM (inactive) | 1.19 µM (inactive) | 7.28 µM (inactive) | 2.19 µM (inactive) | 37.6 µM (inactive) |  | 1.87 µM (inactive) | 8.57 µM (inactive) | 3.71 µM (inactive) | 4.2 µM (inactive) |  |  |  |  |  |  |
| COc1cc2c(oc(=O)c3cc4cc([Si](C)(C)C)oc4c(OC)c32)c2cccc(O)c12 | > 100 µM (inactive) | > 100 µM (inactive) | > 100 µM (inactive) | > 100 µM (inactive) | > 100 µM (inactive) | > 100 µM (inactive) | > 100 µM (inactive) | > 100 µM (inactive) | > 100 µM (inactive) | > 100 µM (inactive) | > 100 µM (inactive) | > 100 µM (inactive) | > 100 µM (inactive) | > 100 µM (inactive) | > 100 µM (inactive) |  |  |  |  |  |
